According to PubChem BioAssay (NCI):
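In this assay, cells in 96-well plates receive the compound at five concentrations for 48 hours. Endpoints are linearly interpolated between the surrounding concentrations. The concentration for 50% growth inhibition is given as GI50. The concentration for full growth arrest is given as TGI.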

Tests used:
Experiment in all cases: NCI-60 cell line screen, 48 h
SR leukemia = test system: SR leukemia
UACC-257 melanoma = test system: UACC-257 melanoma
MDA-MB-231 breast = test system: MDA-MB-231 breast
HOP-62 NSCLC = test system: HOP-62 NSCLC
CCRF-CEM leukemia = test system: CCRF-CEM leukemia
DU-145 prostate = test system: DU-145 prostate
HS 578T breast = test system: HS 578T breast
RPMI-8226 leukemia = test system: RPMI-8226 leukemia
SNB-75 CNS = test system: SNB-75 CNS
UO-31 renal = test system: UO-31 renal
LOX IMVI melanoma = test system: LOX IMVI melanoma
MCF7 breast = test system: MCF7 breast
SF-268 CNS = test system: SF-268 CNS
SK-OV-3 ovarian = test system: SK-OV-3 ovarian
SK-MEL-5 melanoma = test system: SK-MEL-5 melanoma
OVCAR-8 ovarian = test system: OVCAR-8 ovarian
A549 NSCLC = test system: A549 NSCLC
NCI-H460 lung = test system: NCI-H460 lung
SN12C renal = test system: SN12C renal
OVCAR-4 ovarian = test system: OVCAR-4 ovarian
HCT-116 colon = test system: HCT-116 colon
786-0 renal = test system: 786-0 renal
PC-3 prostate = test system: PC-3 prostate
NCI-H23 lung = test system: NCI-H23 lung
MOLT-4 leukemia = test system: MOLT-4 leukemia
UACC-62 melanoma = test system: UACC-62 melanoma
RXF 393 renal = test system: RXF 393 renal
MALME-3M melanoma = test system: MALME-3M melanoma
SNB-19 CNS = test system: SNB-19 CNS
ACHN renal = test system: ACHN renal
M14 melanoma = test system: M14 melanoma
KM12 colon = test system: KM12 colon
SF-539 CNS = test system: SF-539 CNS
OVCAR-3 ovarian = test system: OVCAR-3 ovarian
NCI-H522 lung = test system: NCI-H522 lung
CAKI-1 renal = test system: CAKI-1 renal
NCI/ADR-RES ovarian = test system: NCI/ADR-RES ovarian
T-47D breast = test system: T-47D breast
IGROV1 ovarian = test system: IGROV1 ovarian
TK-10 renal = test system: TK-10 renal
OVCAR-5 ovarian = test system: OVCAR-5 ovarian
HCC-2998 colon = test system: HCC-2998 colon
MDA-MB-435 = test system: MDA-MB-435
SK-MEL-2 melanoma = test system: SK-MEL-2 melanoma
HT29 colon = test system: HT29 colon
SK-MEL-28 melanoma = test system: SK-MEL-28 melanoma
HOP-92 NSCLC = test system: HOP-92 NSCLC
EKVX NSCLC = test system: EKVX NSCLC
BT-549 breast = test system: BT-549 breast
HL-60(TB) leukemia = test system: HL-60(TB) leukemia
HCT-15 colon = test system: HCT-15 colon
SW-620 colon = test system: SW-620 colon
A498 renal = test system: A498 renal
NCI-H226 lung = test system: NCI-H226 lung
U251 CNS = test system: U251 CNS

`Clc1ccc(C(Cn2ccnc2)OCc2ccsc2Cl)c(Cl)c1` (centres undefined) was tested, and the GI50 (SR leukemia) was 2.28 µM, the TGI (SR leukemia) was 7.62 µM and the GI50 (UACC-257 melanoma) was 3.01 µM. The TGI (UACC-257 melanoma) was 11.8 µM, the GI50 (MDA-MB-231 breast) was 4.34 µM and the TGI (MDA-MB-231 breast) was 18.6 µM. It also gave a GI50 (HOP-62 NSCLC) of 4.92 µM, a TGI (HOP-62 NSCLC) of 16.9 µM and a GI50 (CCRF-CEM leukemia) of 2.4 µM. The TGI (CCRF-CEM leukemia) was 7.74 µM, the GI50 (DU-145 prostate) was 7.69 µM and the TGI (DU-145 prostate) was 20.6 µM. The GI50 (HS 578T breast) was 4.44 µM, the TGI (HS 578T breast) was > 100 µM and the GI50 (RPMI-8226 leukemia) was 1.81 µM. It also gave a TGI (RPMI-8226 leukemia) of 5.53 µM, a GI50 (SNB-75 CNS) of 2.32 µM and a TGI (SNB-75 CNS) of 8.22 µM. The GI50 (UO-31 renal) was 2.81 µM, the TGI (UO-31 renal) was 11.1 µM and the GI50 (LOX IMVI melanoma) was 2.51 µM. It also gave a GI50 (MCF7 breast) of 3.24 µM, a TGI (MCF7 breast) of 14.4 µM and a GI50 (SF-268 CNS) of 4.73 µM. The TGI (SF-268 CNS) was 30 µM, the GI50 (SK-OV-3 ovarian) was 5.08 µM and the TGI (SK-OV-3 ovarian) was 16.8 µM. For the same compound, the GI50 (SK-MEL-5 melanoma) was 1.91 µM, the TGI (SK-MEL-5 melanoma) was 4.21 µM and the GI50 (OVCAR-8 ovarian) was 3.05 µM. It also gave a TGI (OVCAR-8 ovarian) of 14.3 µM, a GI50 (A549 NSCLC) of 3.12 µM and a TGI (A549 NSCLC) of 14.2 µM. The GI50 (NCI-H460 lung) was 2.84 µM, the TGI (NCI-H460 lung) was 10.1 µM and the GI50 (SN12C renal) was 4.74 µM. It also gave a TGI (SN12C renal) of 18.7 µM, a GI50 (OVCAR-4 ovarian) of 2.34 µM and a TGI (OVCAR-4 ovarian) of 12.7 µM. For the same compound, the GI50 (HCT-116 colon) was 2.84 µM, the TGI (HCT-116 colon) was 10.6 µM and the GI50 (786-0 renal) was 2.97 µM. The TGI (786-0 renal) was 9.89 µM, the GI50 (PC-3 prostate) was 2.07 µM and the TGI (PC-3 prostate) was 7.62 µM. For the same compound, the GI50 (NCI-H23 lung) was 2.18 µM, the TGI (NCI-H23 lung) was 8.77 µM and the GI50 (MOLT-4 leukemia) was 2.4 µM. For the same compound, the TGI (MOLT-4 leukemia) was 10.5 µM, the GI50 (UACC-62 melanoma) was 3.72 µM and the TGI (UACC-62 melanoma) was 14.3 µM. It also gave a GI50 (RXF 393 renal) of 3.17 µM, a TGI (RXF 393 renal) of 12.8 µM and a GI50 (MALME-3M melanoma) of 2.62 µM. The TGI (MALME-3M melanoma) was 8.62 µM, the GI50 (SNB-19 CNS) was 5.41 µM and the TGI (SNB-19 CNS) was 20.6 µM. It also gave a GI50 (ACHN renal) of 4.17 µM, a TGI (ACHN renal) of 15 µM and a GI50 (M14 melanoma) of 2.72 µM. It also gave a TGI (M14 melanoma) of 8.27 µM, a GI50 (KM12 colon) of 3.01 µM and a TGI (KM12 colon) of 13.5 µM. The GI50 (SF-539 CNS) was 4.23 µM, the TGI (SF-539 CNS) was 14.9 µM and the GI50 (OVCAR-3 ovarian) was 5.11 µM. It also gave a TGI (OVCAR-3 ovarian) of 16.4 µM, a GI50 (NCI-H522 lung) of 2.7 µM and a TGI (NCI-H522 lung) of 9.52 µM. The GI50 (CAKI-1 renal) was 2.05 µM, the TGI (CAKI-1 renal) was 7.36 µM and the GI50 (NCI/ADR-RES ovarian) was 1.91 µM. For the same compound, the TGI (NCI/ADR-RES ovarian) was 5.71 µM, the GI50 (T-47D breast) was 4.04 µM and the TGI (T-47D breast) was 16.9 µM. For the same compound, the GI50 (IGROV1 ovarian) was 3.15 µM, the TGI (IGROV1 ovarian) was 14 µM and the GI50 (TK-10 renal) was 3.31 µM. It also gave a TGI (TK-10 renal) of 11.2 µM, a GI50 (OVCAR-5 ovarian) of 4.91 µM and a TGI (OVCAR-5 ovarian) of 18.2 µM. The GI50 (HCC-2998 colon) was 2.73 µM, the TGI (HCC-2998 colon) was 9.46 µM and the GI50 (MDA-MB-435) was 2.16 µM. For the same compound, the TGI (MDA-MB-435) was 5.59 µM, the GI50 (SK-MEL-2 melanoma) was 2.4 µM and the TGI (SK-MEL-2 melanoma) was 5.67 µM. The GI50 (HT29 colon) was 2.73 µM, the TGI (HT29 colon) was 9.34 µM and the GI50 (SK-MEL-28 melanoma) was 4.18 µM. For the same compound, the TGI (SK-MEL-28 melanoma) was 15.3 µM, the GI50 (HOP-92 NSCLC) was 1.6 µM and the TGI (HOP-92 NSCLC) was 5.93 µM. For the same compound, the GI50 (EKVX NSCLC) was 2.51 µM, the TGI (EKVX NSCLC) was 13.4 µM and the GI50 (BT-549 breast) was 2.92 µM. The TGI (BT-549 breast) was 9.01 µM, the GI50 (HL-60(TB) leukemia) was 1.82 µM and the TGI (HL-60(TB) leukemia) was 4.96 µM. For the same compound, the GI50 (HCT-15 colon) was 3.95 µM, the TGI (HCT-15 colon) was 14.2 µM and the GI50 (SW-620 colon) was 3.27 µM. It also gave a TGI (SW-620 colon) of 12.3 µM, a GI50 (A498 renal) of 2.33 µM and a TGI (A498 renal) of 13.9 µM. For the same compound, the GI50 (NCI-H226 lung) was 5.62 µM, the TGI (NCI-H226 lung) was 30.7 µM and the GI50 (U251 CNS) was 2.79 µM. It also gave a TGI (U251 CNS) of 11.2 µM.
